Data set [1] in a line: solubility studies with docetaxel in solvents/excipients. The conditions noted are these: glycofurol, organic solvent or mixture. From the text: In some instances a solubilizer can provide sufficient degree of dissolution that a separate hydrotrope or other solubilization aid is not needed, but this is generally not the case (i.e. a separate hydrotrope is usually desirable). […] The concentration of drug in solubilizer varies depending on the lipophilicity of drug. […] We have conducted the solubility studies in these excipients to understand how different excipients containing different functional groups are contributing to the solubility of docetaxel. A solubilizer can also act as a hydrotrope (on dilution with infusion fluid) if it is used in the sufficiently large quantities. […] In the table below and the rest of this specification, the terms “solubilizer” and “hydrotrope” will be used with reference to concentrates (both initial and intermediate) unless specifically indicated otherwise or the context so requires.

Data set [2] is described as follows: physical stability (onset of precipitation) of initial and final dilutions of docetaxel formulations. It is filed as physicochemical. Here is the method:
Observations: • 1. The concentrate turns waxy and viscous when stored at temperature below the room temperature, i.e., 22° C. To disperse this viscous mass, a large amount of WFI is needed to make the system suitable for subsequent dilution. So the first step of making a 10 mg/ml solution cannot be achieved with this liquid concentrate. • 2. To achieve a primary dilution of docetaxel of 10 mg/ml, the above concentrate was heated in a water bath to form a viscous liquid, and then diluted with 8 ml of water for injection. The primary dilution is stable for a period of not less than 8 hours, which was a stability condition stipulated in the innovators product. This solution, when further diluted with NS, achieves the targeted concentration range of 0.3-0.74 mg/ml of docetaxel in the final solution for administration. This solution is stable for a period of 24 hours as opposed to the stability of 4 hours with innovators product. In this example, we have achieved the target concentration of docetaxel for administration without the presence of polysorbate 80. • 3.
The concentrate is liquid at room temperature and turned waxy only when stored at 5° C. or below, but turned back to free flowing liquid in 5 minutes when kept at room temperature. • 2. During the initial dilution step to get 10 mg/ml, the contents of the vial turned into a thixotropic liquid within the vial. […]

For data set [3] the following is noted: docetaxel as marketed by Sanofi-Aventis; cited from earlier work.

Results on one compound are retold here after patent US20120264817A1, “SOLUBILIZED FORMULATION OF DOCETAXEL WITHOUT TWEEN 80” (priority 2007, published 2012).

Each structure is given as a SMILES string.

Broadly, the solubility is how much of the substance goes into solution per volume. On to `CC(=O)O[C@@]12CO[C@@H]1C[C@H](O)[C@@]1(C)C(=O)[C@H](O)C3=C(C)[C@@H](OC(=O)[C@H](O)[C@@H](NC(=O)OC(C)(C)C)c4ccccc4)C[C@@](O)([C@@H](OC(=O)c4ccccc4)[C@H]21)C3(C)C` [docetaxel, (2R,3S)—N-carboxy-3-phenylisoserine, N-tert-butyl ester, 13-ester with 5beta-20-epoxy-1,2α,4,7β,10β,13α-hexahyciroxytax-11-en-9-one 4-acetate 2-benzoate, trihydrate], for which the solubility in data set [1] was around 200 mg/mL. The “behaviour on dilution to administration concentrations” value in data set [2] (about 10 mg/ml solution in glycofurol, diluted with IV fluids) is “will not precipitate out”. Also, the “behaviour on dilution to administration concentrations” value in data set [2] (about 200 mg/ml liquid concentrate in glycofurol, diluted with water) was “precipitates out”. Besides, in data set [3], the lipophilicity result was “highly lipophilic” and the solubility in water result was “practically insoluble in water”.
